Measurements from patent publication USRE50082E1, “(5,6-dihydro)pyrimido[4,5-e]indolizines” (NETHERLANDS TRANSLATIONAL RESEARCH CENTER B.V., priority 2014, dated 2024).
Where two headings read alike, the source gives them in different places.

Legend:
[1] = system: MOLT-4 cancer cell line; assay: Cell proliferation assay, MOLT-4 cancer cell line (ATPlite); assay type: cell-based; conditions: Homo sapiens;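 further: luminescence read-out, percent growth versus compound-free DMSO wells as maximum growth, start-of-incubation signal separating growth from cell death, IC50 from logistic curve fit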
[2] = molecular target: T1, Aurora A (Homo sapiens, UniProt O14965); assay: Biochemical Aurora A kinase assay (LANCE Ultra TR-FRET); conditions: for AurA Selectivity: IC50 AurA/IC50 TTK (biochemical assays); for IC50: full-length Aurora A, 2 μM ATP
T1 construct: full-length Aurora A enzyme (Carna Biosciences, cat. no. 05-101); purchased Carna Biosciences 05-101
T1 sequence (O14965 1-403): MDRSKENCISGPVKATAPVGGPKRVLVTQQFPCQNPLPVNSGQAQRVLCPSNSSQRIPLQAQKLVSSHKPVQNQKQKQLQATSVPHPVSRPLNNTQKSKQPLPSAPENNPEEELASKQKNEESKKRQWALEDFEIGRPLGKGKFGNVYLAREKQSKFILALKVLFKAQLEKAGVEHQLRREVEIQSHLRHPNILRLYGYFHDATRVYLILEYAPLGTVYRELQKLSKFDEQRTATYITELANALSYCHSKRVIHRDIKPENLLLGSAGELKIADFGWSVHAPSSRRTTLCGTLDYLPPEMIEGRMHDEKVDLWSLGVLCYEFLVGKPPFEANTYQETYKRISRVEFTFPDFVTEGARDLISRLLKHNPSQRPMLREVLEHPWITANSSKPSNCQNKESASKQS
Procedure: To determine the inhibitory activity of the compounds on Aurora A, the LANCE® Ultra TR-FRET assay (Perkin Elmer) was used. […] After 2 hours, the reaction was stopped by the addition of 5 μl 100 mM EDTA. […] Time-resolved fluorescence was measured on an Envision multilabel reader (Perkin Elmer, Waltham, Mass., USA). IC50 were calculated using XLfit™5 software (ID Business Solutions, Ltd., Surrey, U.K.).

[3] = molecular target: T2, Aurora C (Homo sapiens, UniProt Q9UQB9); assay: Biochemical Aurora C kinase assay (LANCE Ultra TR-FRET); conditions: for AurC Selectivity: IC50 AurC/IC50 TTK (biochemical assays); for IC50: full-length Aurora C, 5 μM ATP
T2 construct: full-length Aurora C enzyme (Carna Biosciences, cat. no. 05-103); purchased Carna Biosciences 05-103
T2 sequence (Q9UQB9 1-309): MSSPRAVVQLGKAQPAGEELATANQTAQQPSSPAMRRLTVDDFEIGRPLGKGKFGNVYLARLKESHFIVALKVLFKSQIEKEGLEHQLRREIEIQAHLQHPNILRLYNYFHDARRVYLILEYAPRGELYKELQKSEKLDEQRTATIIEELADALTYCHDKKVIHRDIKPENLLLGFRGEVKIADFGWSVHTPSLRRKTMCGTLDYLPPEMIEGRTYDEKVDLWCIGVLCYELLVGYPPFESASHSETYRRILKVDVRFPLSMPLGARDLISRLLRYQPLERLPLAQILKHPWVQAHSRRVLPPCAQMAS
Procedure: To determine the inhibitory activity of the compounds on Aurora C, the LANCE® Ultra TR-FRET assay (Perkin Elmer) was used. […] After pre-incubation of 1 hour in the dark at room temperature, ULightTM-labeled PLK([MUT]) substrate peptide (Perkin Elmer, cat. no. TRF-0110) and ATP were added, to start the reaction. […] After 3 hours, the reaction was stopped by the addition of 5 μl 100 mM EDTA. […] Time-resolved fluorescence was measured on an Envision multilabel reader (Perkin Elmer, Waltham, Mass., USA). IC50 were calculated using XLfitTM5 software (ID Business Solutions, Ltd., Surrey, U.K.).

[4] = molecular target: Polo-like kinase 1 (PLK1) (Homo sapiens, UniProt P53350); assay: Biochemical Polo-like kinase 1 kinase assay (LANCE Ultra TR-FRET); conditions: for PLK1 Selectivity: IC50 PLK1/IC50 TTK (biochemical assays)
Chain of Polo-like kinase 1 (PLK1) (P53350 whole entry): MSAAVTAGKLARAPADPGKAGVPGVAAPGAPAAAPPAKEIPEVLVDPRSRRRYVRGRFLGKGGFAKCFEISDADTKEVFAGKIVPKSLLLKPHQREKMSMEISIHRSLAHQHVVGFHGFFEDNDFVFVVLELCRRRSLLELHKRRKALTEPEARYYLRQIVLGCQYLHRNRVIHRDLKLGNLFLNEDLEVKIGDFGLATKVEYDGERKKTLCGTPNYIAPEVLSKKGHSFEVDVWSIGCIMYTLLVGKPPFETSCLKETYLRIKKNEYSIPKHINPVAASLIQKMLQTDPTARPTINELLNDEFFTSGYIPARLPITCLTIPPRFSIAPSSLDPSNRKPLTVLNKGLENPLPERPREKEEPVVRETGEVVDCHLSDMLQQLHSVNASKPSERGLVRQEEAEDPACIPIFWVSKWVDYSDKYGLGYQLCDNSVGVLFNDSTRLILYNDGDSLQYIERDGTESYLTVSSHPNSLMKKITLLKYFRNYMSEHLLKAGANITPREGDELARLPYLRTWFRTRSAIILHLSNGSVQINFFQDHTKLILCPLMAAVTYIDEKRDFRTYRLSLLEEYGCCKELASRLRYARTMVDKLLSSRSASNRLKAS
Procedure: To determine the inhibitory activity of the compounds on Polo-like kinase 1 (PLK1), the LANCE® Ultra TR-FRET assay (Perkin Elmer) was used. […] After 4 hours, the reaction was stopped by the addition of 5 μl 100 mM EDTA. […] Time-resolved fluorescence was measured on an Envision multilabel reader (Perkin Elmer, Waltham, Mass. USA). IC50 were calculated using XLfit™5 software (ID Business Solutions, Ltd., Surrey, U.K.).

[5] = system: HeLa-Matu cervical tumor cell; conditions: cited from earlier work
[6] = system: human cancer cell lines; conditions: Colombo et al.; read-out: IC50 proliferation of cancer cell lines from different tumor origin; cited from earlier work
[7] = system: A375; conditions: mouse xenograft model; cited from earlier work
[8] = system: A2780; conditions: mouse xenograft model; cited from earlier work
[9] = MOLT-4, 72 hours incubation, ATPlite 1Step, read-out: IC50 MOLT-4 cell proliferation
[10] = MOLT-4, read-out: IC50 in the TTK cellular assay
[11] = MOLT-4, worded 'TTK cellular assay', read-out: IC50 in the TTK cellular assay

| AurA Selectivity [2] | IC50 [2] | AurC Selectivity [3] | IC50 [3] | IC50 [4] | PLK1 Selectivity [4] | IC50 [1, 11] | SMILES | IC50 [1, 9] | IC50 [1, 10] | Efficacy of paclitaxel in combination ([5]; HeLa-Matu mouse xenograft model, with paclitaxel) | HeLa-Matu cervical tumor cell growth ([5]; mouse xenograft model) | IC50 [6] | Tumor growth, A375 xenograft [7] | Tumor growth, A2780 xenograft [8] |
| --- | --- | --- | --- | --- | --- | --- | --- | --- | --- | --- | --- | --- | --- | --- |
| >500 | ≥ 100 nM | >500 | ≥ 100 nM | ≥ 250 nM | >500 | – | COCCOCCOCCn1nc(C)c(NC(=O)c2ccn3c2CCc2cnc(Nc4ccc(N5CCN(C)CC5)cc4OC)nc2-3)c1C [Example 138, N-[1-[2-[2-(2-methoxyethoxy)ethoxy]ethyl]-3,5-dimethyl-pyrrazol-4-yl]-2-[2-methoxy-4-(4-methylpiperazin-1-yl)anilino]-5,6-dihydropyrimido[4,5-e]indolizine-7-carboxamide] | < 50 nM | – | – | – | – | – | – |
| >200 | ≥ 100 nM | >500 | ≥ 100 nM | ≥ 250 nM | >500 | < 50 nM | COCCOCCn1nc(C)c(NC(=O)c2ccn3c2CCc2cnc(Nc4ccc(N5CCN(C)CC5)cc4OC)nc2-3)c1C [Example 149, N-[1-[2-(2-methoxyethoxy)ethyl]-3,5-dimethyl-pyrazol-4-yl]-2-[2-methoxy-4-(4-methylpiperazin-1-yl)anilino]-b,6-dihydropyrimido[4,5-e]indolizine-7-carboxamide] | – | – | – | – | – | – | – |
| >200 | ≥ 100 nM | >500 | ≥ 100 nM | ≥ 250 nM | >500 | < 50 nM | CCOCCOCCn1nc(CC)c(NC(=O)c2ccn3c2CCc2cnc(Nc4ccc(N5CCN(C)CC5)cc4OC)nc2-3)c1CC [Example 150, N-[1-[2-(2-ethoxyethoxy)ethyl]-3,5-diethyl-pyrazol-4-yl]-2-[2-methoxy-4-(4-methylpiperazin-1-yl)anilino]-5,6-dihydropyrimido[4,5-e]indolizine-7-carboxamide] | – | – | – | – | – | – | – |
| >100 | ≥ 100 nM | >500 | ≥ 100 nM | ≥ 250 nM | >500 | < 50 nM | CCOCCOCCn1nc(CC)c(NC(=O)c2ccn3c2CCc2cnc(Nc4ccc(N5CCNCC5)cc4OC)nc2-3)c1CC [Example 151, N-[1-[2-(2-ethoxyethoxy)ethyl]-3,5-diethyl-pyrazol-4-yl]-2-(2-methoxy-4-piperazin-1-yl-anilino)-5,6-dihydropyrimido[4,5-e]indolizine-7-carboxamide] | – | – | – | – | – | – | – |
| >200 | ≥ 100 nM | >500 | ≥ 100 nM | ≥ 250 nM | >500 | < 50 nM | COCCn1nc(C)c(NC(=O)c2ccn3c2CCc2cnc(Nc4ccc(N5CCN(C(=O)C6CN(C)C6)CC5)cc4OC)nc2-3)c1C [Example 155, N-[1-(2-methoxyethyl)-3,5-dimethyl-pyrazol-4-yl]-2-[2-methoxy-4-[4-(1-methylazetidine-3-carbonyl)piperazin-1-yl]anilino]-5,6-dihydropyrimido[4,5-e]indolizine-7-carboxamide] | – | – | – | – | – | – | – |
| >200 | ≥ 100 nM | >500 | ≥ 100 nM | ≥ 250 nM | >500 | < 50 nM | COCCOCCOCCn1nc(C)c(NC(=O)c2ccn3c2CCc2cnc(Nc4ccc(N5CCNCC5)cc4OC)nc2-3)c1C [Example 156, N-[1-[2-[2-(2-methoxyethoxy)ethoxy]ethyl]-3,5-dimethyl-pyrazol-4-yl]-2-(2-methoxy-4-piperazin-1-yl-anilino)-5,6-dihydropyrimido[4,5-e]indolizine-7-carboxamide] | – | – | – | – | – | – | – |
| >200 | ≥ 100 nM | >500 | ≥ 100 nM | ≥ 250 nM | >500 | < 50 nM | CCNCC(=O)N1CCN(c2ccc(Nc3ncc4c(n3)-n3ccc(C(=O)Nc5c(C)nn(CCOCCOCCOC)c5C)c3CC4)c(OC)c2)CC1 [Example 157, 2-[4-[4-[2-(Ethylamino)acetyl]piperazin-1-yl]-2-methoxy-anilino]-N-[1-[2-[2-(2-methoxyethoxy)ethoxy]ethyl]-3,5-dimethyl-pyrazol-4-yl]-5,6-dihydropyrimido[4,5-e]indolizine-7-carboxamide] | – | – | – | – | – | – | – |
| >200 | ≥ 100 nM | >500 | ≥ 100 nM | ≥ 250 nM | >500 | < 50 nM | CCNCC(=O)N1CCN(c2ccc(Nc3ncc4c(n3)-n3ccc(C(=O)Nc5c(CC)nn(CCOCCOC)c5CC)c3CC4)c(OC)c2)CC1 [Example 158, N-[3,5-diethyl-1-[2-(2-methoxyethoxy)ethyl]pyrazol-4-yl]-2-[4-[4-[2-(ethylamino)acetyl]piperazin-1-yl]-2-methoxy-anilino]-5,6-dihydropyrimido[4,5-e]indolizine-7-carboxamide] | – | – | – | – | – | – | – |
| >200 | ≥ 100 nM | >200 | ≥ 100 nM | ≥ 250 nM | >500 | < 50 nM | CCc1nn(CCOCCOC)c(CC)c1NC(=O)c1ccn2c1CCc1cnc(Nc3ccc(N4CCN(C(=O)COC)CC4)cc3OC)nc1-2 [Example 159, N-[3,5-diethyl-1-[2-(2-methoxyethoxy)ethyl]pyrazol-4-yl]-2-[2-methoxy-4-[4-(2-methoxyacetyl)piperazin-1-yl]anilino]-5,6-dihydropyrimido[4,5-e]indolizine-7-carboxamide] | – | – | – | – | – | – | – |
| – | – | – | – | – | – | – | CC(C)CNc1nccn2c(-c3ccc(C(=O)NC4CC4)cc3)cnc12 [Mps-BAY2b] | – | – | increased the efficacy of paclitaxel | inhibit HeLa-Matu cervical tumor cell growth | – | – | – |
| – | – | – | – | – | – | – | CCc1cccc(CC)c1NC(=O)c1nn(C)c2c1CCc1cnc(Nc3ccc(C(=O)NC4CCN(C)CC4)cc3OC(F)(F)F)nc1-2 [NMS-P715] | – | – | – | – | ≥ 1000 nM | inhibited tumor growth | inhibited tumor growth |

| SMILES | AurA Selectivity [2] | IC50 [2] | AurC Selectivity [3] | IC50 [3] | IC50 [4] | PLK1 Selectivity [4] | IC50 [1, 11] | IC50 [1, 9] | IC50 [1, 10] | Efficacy of paclitaxel in combination ([5]; HeLa-Matu mouse xenograft model, with paclitaxel) | HeLa-Matu cervical tumor cell growth ([5]; mouse xenograft model) | IC50 [6] | Tumor growth, A375 xenograft [7] | Tumor growth, A2780 xenograft [8] |
| --- | --- | --- | --- | --- | --- | --- | --- | --- | --- | --- | --- | --- | --- | --- |
| CCc1n[nH]c(CC)c1NC(=O)c1ccn2c1CCc1cnc(Nc3ccc(N4CCN(C)CC4)cc3OC(F)F)nc1-2 [Example 33, N-(3,5-diethyl-1H-pyrazol-4-yl)-2-[2-(difluoromethoxy)-4-(4-methylpiperazin-1-yl)anilino]-5,6-dihydropyrimido[4,5-e]indolizine-7-carboxamide] | >500 | ≥ 100 nM | >500 | ≥ 100 nM | ≥ 250 nM | >500 | – | < 50 nM | – | – | – | – | – | – |
| CCc1nn(CCOCCOC)c(CC)c1NC(=O)c1ccn2c1CCc1cnc(Nc3ccc(N4CCN(C)CC4)cc3OC)nc1-2 [Example 141, N-[3,5-diethyl-1-[2-(2-methoxyethoxy)ethyl]pyrazol-4-yl]-2-[2-methoxy-4-(4-methylpiperazin-1-yl)anilino]-5,6-dihydropyrimido[4,5-e]indolizine-7-carboxamide] | >200 | ≥ 100 nM | >500 | ≥ 100 nM | ≥ 250 nM | >500 | – | < 50 nM | – | – | – | – | – | – |
| CCOCCOCCn1nc(C)c(NC(=O)c2ccn3c2CCc2cnc(Nc4ccc(N5CCN(C)CC5)cc4OC)nc2-3)c1C [Example 148, N-[1-[2-(2-ethoxyethoxy)ethyl]-3,5-dimethyl-pyrazol-4-yl]-2-[2-methoxy-4-(4-methylpiperazin-1-yl)anilino]-5,6-dihydropyrimido[4,5-e]indolizine-7-carboxamide] | – | ≥ 100 nM | – | ≥ 100 nM | ≥ 250 nM | – | – | – | < 50 nM | – | – | – | – | – |
| COCCOCCOCCn1nc(C)c(NC(=O)c2ccn3c2CCc2cnc(Nc4ccc(-c5c(C)nn(C)c5C)cc4OC)nc2-3)c1C [Example 160, N-[1-[2-[2-(2-methoxyethoxy)ethoxy]ethyl]-3,5-dimethyl-pyrazol-4-yl]-2-[2-methoxy-4-(1,3,5-trimethylpyrazol-4-yl)anilino]-5,6-dihydropyrimido[4,5-e]indolizine-7-carboxamide] | – | ≥ 100 nM | – | ≥ 100 nM | ≥ 250 nM | – | – | – | < 50 nM | – | – | – | – | – |
